Assay results as given in patent publication US10383866B2, “Alkyl dihydroquinoline sulfonamide compounds” (AMGEN INC., priority 2015, dated 2019).

Key:
[1] = target: T1, human Nav1.7 (Homo sapiens, UniProt Q15858); assay: Nav 1.7 In Vitro PX Assay (PatchXpress whole cell voltage clamp, partially inactivated state); type: cell-based; details: HEK 293 cells stably transfected with human Nav1.7, holding potential yielding 20 to 50% inactivation, read-out: hNav1.7 PX IC50
T1 construct: expressed in transfected cells; host or cells: HEK 293
Experimental: Nav 1.7 In Vitro PX Assay
HEK 293 cells stably transfected with human Nav1.7 were recorded in whole cell voltage clamp mode with the PatchXpress automated electrophysiology system (Molecular Devices, LLC, Sunnyvale, Calif.). Compound effects were measured on a partially inactivated state of the sodium channel Cells were clamped to a holding potential yielding 20 to 50% inactivation. To elicit sodium current, channels were activated by pulsing to −10 mV for 20 msec. This voltage protocol was repeated at a rate of 0.1 Hz throughout the experiment. A single concentration of test compound was applied to cells for a duration of 3 minutes. Peak sodium current was measured at the end of the compound addition period to determine percent inhibition. Three to five cells were tested per concentration, and IC50 curves were fitted to percent inhibition as a function of concentration.

[2] = target: T2, hNav1.7 (Homo sapiens, UniProt Q15858); assay: Nav 1.7 IWQ In Vitro Assay (IonWorks Quattro population patch-clamp); type: cell-based; details: HEK 293 cells stably transfected with Nav 1.7, 26th pulse to -20 mV
T2 construct: expressed in transfected cells; host or cells: HEK 293
Experimental: Nav 1.7 or Nav 1.5 IWQ In Vitro Assay
HEK 293 Cells stably transfected with either Nav 1.7 or Nav 1.5 were recorded in population patch-clamp mode with the IonWorks® Quattro automated electrophysiology system in accordance with the manufacturer's specifications (Molecular Devices, LLC, Sunnyvale, Calif.). Sodium channel currents were measured in response to a train of depolarizations that induced successively greater inactivation.
Cells were held at −110 mV for three seconds (Nav 1.7) or half a second (Nav 1.5) from a holding voltage of −15 mV, then put through a series of 26 pulses of 150 msec duration to −20 mV at a frequency of 5 Hz. Cells were then left unclamped for a period of 3 to 8 minutes while a single concentration of test compound was added. Cells were then reclamped and put through the same voltage protocol. Current at the end of the 26th pulse to −20 mV was subtracted from the peak current evoked by the 26th pulse to −20 mV to correct for leak current. Percent block was calculated for each concentration in duplicate, and IC50 curves were fitted to percent block as a function of concentration.

[3] = HLM in vitro; type: in vitro ADME, human
[4] = target: T3, human PXR (Homo sapiens, UniProt O75469); assay: Human PXR @ 2 uM POC; type: in vitro ADME
T3 sequence (O75469 1-434): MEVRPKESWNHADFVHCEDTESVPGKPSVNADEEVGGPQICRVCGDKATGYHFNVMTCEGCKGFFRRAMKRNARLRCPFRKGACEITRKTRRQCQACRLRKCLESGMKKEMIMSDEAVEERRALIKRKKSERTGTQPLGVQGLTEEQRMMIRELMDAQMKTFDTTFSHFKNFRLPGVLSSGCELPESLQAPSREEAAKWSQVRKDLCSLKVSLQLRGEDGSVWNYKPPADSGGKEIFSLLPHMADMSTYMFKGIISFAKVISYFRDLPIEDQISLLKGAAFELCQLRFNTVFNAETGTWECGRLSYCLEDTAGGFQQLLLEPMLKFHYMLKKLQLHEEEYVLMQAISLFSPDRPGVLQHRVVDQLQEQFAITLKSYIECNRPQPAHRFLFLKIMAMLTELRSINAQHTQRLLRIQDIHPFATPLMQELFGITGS

T2 sequence (Q15858 whole entry): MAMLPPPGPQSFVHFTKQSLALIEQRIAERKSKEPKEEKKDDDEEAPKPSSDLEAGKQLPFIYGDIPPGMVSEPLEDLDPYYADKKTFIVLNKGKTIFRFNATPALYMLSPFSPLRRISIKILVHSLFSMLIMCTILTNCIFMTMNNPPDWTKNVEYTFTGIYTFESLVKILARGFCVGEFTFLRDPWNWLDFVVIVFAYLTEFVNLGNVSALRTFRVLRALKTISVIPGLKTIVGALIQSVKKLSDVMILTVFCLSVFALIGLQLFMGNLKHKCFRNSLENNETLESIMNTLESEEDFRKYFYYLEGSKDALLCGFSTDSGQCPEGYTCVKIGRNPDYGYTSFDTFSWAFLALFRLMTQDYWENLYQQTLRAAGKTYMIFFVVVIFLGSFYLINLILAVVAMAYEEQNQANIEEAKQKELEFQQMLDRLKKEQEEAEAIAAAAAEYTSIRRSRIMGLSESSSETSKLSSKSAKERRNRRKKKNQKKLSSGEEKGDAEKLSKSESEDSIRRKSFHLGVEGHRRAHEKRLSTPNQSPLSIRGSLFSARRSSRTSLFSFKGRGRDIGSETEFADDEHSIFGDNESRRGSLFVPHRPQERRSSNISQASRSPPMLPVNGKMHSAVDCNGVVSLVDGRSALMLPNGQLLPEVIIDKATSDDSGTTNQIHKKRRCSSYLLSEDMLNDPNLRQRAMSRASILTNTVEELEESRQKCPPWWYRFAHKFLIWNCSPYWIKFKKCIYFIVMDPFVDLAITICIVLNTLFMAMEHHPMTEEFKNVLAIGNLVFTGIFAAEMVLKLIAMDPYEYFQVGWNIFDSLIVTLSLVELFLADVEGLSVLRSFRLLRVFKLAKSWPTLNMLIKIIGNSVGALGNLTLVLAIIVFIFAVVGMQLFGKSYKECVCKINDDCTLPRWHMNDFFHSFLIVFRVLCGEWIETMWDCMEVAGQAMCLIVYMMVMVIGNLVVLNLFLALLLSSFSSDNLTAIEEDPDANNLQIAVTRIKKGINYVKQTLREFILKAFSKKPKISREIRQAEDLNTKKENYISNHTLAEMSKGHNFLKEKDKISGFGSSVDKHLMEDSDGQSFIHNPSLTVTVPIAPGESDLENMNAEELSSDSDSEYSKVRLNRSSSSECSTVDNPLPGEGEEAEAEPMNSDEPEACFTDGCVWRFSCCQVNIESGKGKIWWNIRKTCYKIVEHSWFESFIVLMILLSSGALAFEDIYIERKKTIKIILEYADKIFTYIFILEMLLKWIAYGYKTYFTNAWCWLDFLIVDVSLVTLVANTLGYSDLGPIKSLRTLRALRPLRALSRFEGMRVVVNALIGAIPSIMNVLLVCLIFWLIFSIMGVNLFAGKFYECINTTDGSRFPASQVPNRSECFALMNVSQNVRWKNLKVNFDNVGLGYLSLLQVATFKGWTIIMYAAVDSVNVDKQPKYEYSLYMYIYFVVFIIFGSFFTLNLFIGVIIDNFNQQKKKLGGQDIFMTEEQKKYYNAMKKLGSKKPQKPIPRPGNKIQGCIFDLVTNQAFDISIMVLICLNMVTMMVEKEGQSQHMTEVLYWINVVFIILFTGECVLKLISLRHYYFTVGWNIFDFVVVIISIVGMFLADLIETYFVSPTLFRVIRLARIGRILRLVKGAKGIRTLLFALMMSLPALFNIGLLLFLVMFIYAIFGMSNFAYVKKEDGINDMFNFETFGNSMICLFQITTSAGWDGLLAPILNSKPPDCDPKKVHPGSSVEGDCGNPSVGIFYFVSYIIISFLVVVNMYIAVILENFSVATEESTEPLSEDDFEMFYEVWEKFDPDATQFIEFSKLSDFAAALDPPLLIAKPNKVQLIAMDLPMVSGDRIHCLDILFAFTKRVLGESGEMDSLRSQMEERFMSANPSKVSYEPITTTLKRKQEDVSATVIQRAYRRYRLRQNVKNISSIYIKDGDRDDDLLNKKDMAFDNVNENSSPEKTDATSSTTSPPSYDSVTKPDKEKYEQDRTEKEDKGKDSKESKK
T1 sequence (Q15858 whole entry): as above

Structure (SMILES) | IC50 [1] [nM] | IC50 [2] [nM] | HLM in vitro [3] | human PXR @ 2 uM POC S [4] [%]
COc1cc(CCC(F)(F)F)c(F)cc1-n1c(=O)ccc2cc(S(=O)(=O)Nc3ccon3)ccc21 (atropisomer, axis not shown; (P)) [Example 1, (P)-1-(5-fluoro-2-methoxy-4-(3,3,3-trifluoropropyl)phenyl)-N-(isoxazol-3-yl)-2-oxo-1,2-dihydroquinoline-6-sulfonamide] | 320 | 2 | <14.0 [2] μL/(min · mg) | 0.22
COc1cc(CCC(F)(F)F)c(Cl)cc1-n1c(=O)ccc2cc(S(=O)(=O)Nc3ccon3)ccc21 (atropisomer, axis not shown; (P)) [Example 2, (P)-1-(5-chloro-2-methoxy-4-(3,3,3-trifluoropropyl)phenyl)-N-(isoxazol-3-yl)-2-oxo-1,2-dihydroquinoline-6-sulfonamide] | 80 | 5 | <14.0 µL/min/mg | 2.38
COc1cc(CCC(F)(F)F)c(F)cc1-n1c(=O)ccc2cc(S(=O)(=O)Nc3cccnn3)ccc21 (atropisomer, axis not shown; (P)) [Example 3, (P)-1-(5-fluoro-2-methoxy-4-(3,3,3-trifluoropropyl)phenyl)-2-oxo-N-(Pyridazin-3-yl)-1,2-dihydroquinoline-6-sulfonamide] | 980 | 2 | <14.0 µL/min/mg | 3.20
COc1cc(CCCC(F)(F)F)c(F)cc1-n1c(=O)ccc2cc(S(=O)(=O)Nc3ccon3)ccc21 (atropisomer, axis not shown; (P)) [Example 5, (P)-1-(5-fluoro-2-methoxy-4-(4,4,4-trifluorobutyl)phenyl)-N-(isoxazol-3-yl)-2-oxo-1,2-dihydroquinoline-6-sulfonamide] | 870 | 2 | <14.0 µL/min/mg | 1.87
COc1cc(CC(F)(F)F)c(F)cc1-n1c(=O)ccc2cc(S(=O)(=O)Nc3ccon3)ccc21 (atropisomer, axis not shown; (P)) [Example 6B, (P)-1-(5-fluoro-2-methoxy-4-(2,2,2-trifluoroethyl)phenyl)-N-(isoxazol-3-yl)-2-oxo-1,2-dihydroquinoline-6-sulfonamide] | 84.4 | 5.3 | <14.0 µL/min/mg | −2.42
COc1cc(C[C@@H](C)C(F)(F)F)c(F)cc1-n1c(=O)ccc2cc(S(=O)(=O)Nc3ccon3)ccc21 (racemic) [Example 4, (P)-1-(5-fluoro-2-methoxy-4-(3,3,3-trifluoro-2-methylpropyl)phenyl)-N-(isoxazol-3-yl)-2-oxo-1,2-dihydroquinoline-6-sulfonamide] | 720 | 12 | <14.0 µL/min/mg | −0.04
COc1cc(CC(F)(F)F)c(F)cc1-n1c(=O)ccc2cc(S(=O)(=O)Nc3ccon3)ccc21 (racemic) [Example 6A, 1-(5-fluoro-2-methoxy-4-(2,2,2-trifluoroethyl)phenyl)-N-(isoxazol-3-yl)-2-oxo-1,2-dihydroquinoline-6-sulfonamide] | 320 | 1.78 | <14.0 µL/min/mg | −1.12
